US5763404A, “Methods for using LHRH antagonists with low histamine release” (priority 1995, dated 1998)
Starred links: 1 amine or outer side, 2 acyl side, 3 side chain; linkers in the order of their positions; H or OH if unused. Non-standard residues stand in square brackets, D forms with d. Residues, ends and D or L forms follow the SMILES beside them. *: point of attachment. X3 = O=C(N[C@H]1CC[C@H](C[C@@H](N[*:1])C(=O)[*:2])CC1)c1cnccn1; dPhe(4-Cl) = N[C@H](Cc1ccc(Cl)cc1)C(=O)O; d2Nal = N[C@H](Cc1ccc2ccccc2c1)C(=O)O; Lys(iPr) = CC(C)NCCCC[C@H](N)C(=O)O; d3Pal = N[C@H](Cc1cccnc1)C(=O)O; Cit = NC(=O)NCCC[C@H](N)C(=O)O; Nicotinoyl = O=C(c1cccnc1)*; Picolinoyl = O=C(c1ccccn1)*; Orn = NCCC[C@H](N)C(=O)O; Abu = CC[C@H](N)C(=O)O

Tested on: anaesthesized rats
Assay: wheal test, intradermal injection
Format: in vivo, rat
Design: Wheal (wheal response): unit not given here
Conditions: for Wheal Area / Wheal: 10 ug peptide intradermally; for Wheal: Table I
How it was run: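 Anaesthetized rats given intradermal injection of 10 ug peptide in 100 ul saline; area of the wheal calculated from its diameter.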

Wheal Area [mm^2 /10 μg]	Wheal (wheal response) (Table XIV and text, unit not given)	Wheal [mm^2 /10]	Compound
113.2 ± 5.4	113.2 ± 5.4		CC[C@H](NC(=O)[C@@H](CCCCNC(=O)c1ccccn1)NC(=O)[C@H](CCCCNC(=O)c1ccccn1)NC(=O)[C@H](CO)NC(=O)[C@@H](Cc1cccnc1)NC(=O)[C@@H](Cc1ccc(Cl)cc1)NC(=O)[C@@H](Cc1ccc2ccccc2c1)NC(C)=O)C(=O)N[C@@H](CCCNC(=N)N)C(=O)N1CCC[C@H]1C(=O)N[C@H](C)C(N)=O [compound 26346] (Ac-[d2Nal][dPhe(4-Cl)][d3Pal]SK(Picolinoyl)[dK](Picolinoyl)[Abu]RP[dA]-NH2)
		120 ± 7	CC(=O)N[C@H](Cc1ccc2ccccc2c1)C(=O)N[C@H](Cc1ccc(Cl)cc1)C(=O)N[C@H](Cc1cccnc1)C(=O)N[C@@H](CO)C(=O)N[C@@H](CCCCNC(=O)c1cccnc1)C(=O)N[C@H](CCCCNC(=O)c1ccccn1)C(=O)N[C@@H](CC(C)C)C(=O)N[C@@H](CCCCNC(C)C)C(=O)N1CCC[C@H]1C(=O)N[C@H](C)C(N)=O [compound 25589] (Ac-[d2Nal][dPhe(4-Cl)][d3Pal]SK(Nicotinoyl)[dK](Picolinoyl)L[Lys(iPr)]P[dA]-NH2)
		116 ± 3.3	CC(=O)N[C@H](Cc1ccc2ccccc2c1)C(=O)N[C@H](Cc1ccc(Cl)cc1)C(=O)N[C@H](Cc1cccnc1)C(=O)N[C@@H](CO)C(=O)N[C@@H](CCCCNC(=O)c1ccccn1)C(=O)N[C@H](CCCCNC(=O)c1cccnc1)C(=O)N[C@@H](CC(C)C)C(=O)N[C@@H](CCCCNC(C)C)C(=O)N1CCC[C@H]1C(=O)N[C@H](C)C(N)=O [compound 25510] (Ac-[d2Nal][dPhe(4-Cl)][d3Pal]SK(Picolinoyl)[dK](Nicotinoyl)L[Lys(iPr)]P[dA]-NH2)
89.5 ± 5.5			CC[C@H](NC(=O)[C@@H](CCCCNC(=O)c1ccccn1)NC(=O)[C@H](CCCNC(N)=O)NC(=O)[C@H](CO)NC(=O)[C@@H](Cc1cccnc1)NC(=O)[C@@H](Cc1ccc(Cl)cc1)NC(=O)[C@@H](Cc1ccc2ccccc2c1)NC(C)=O)C(=O)N[C@@H](CCCCNC(C)C)C(=O)N1CCC[C@H]1C(=O)N[C@H](C)C(N)=O [compound 26382] (Ac-[d2Nal][dPhe(4-Cl)][d3Pal]S[Cit][dK](Picolinoyl)[Abu][Lys(iPr)]P[dA]-NH2)

Further lines, the compound ahead of its results:

Compound	Wheal Area [mm^2 /10 μg]	Wheal (wheal response) (Table XIV and text, unit not given)	Wheal [mm^2 /10]
CC(=O)N[C@H](Cc1ccc2ccccc2c1)C(=O)N[C@H](Cc1ccc(Cl)cc1)C(=O)N[C@H](Cc1cccnc1)C(=O)N[C@@H](CO)C(=O)N[C@@H](CCCCNC(C)C)C(=O)N[C@H](CCCCNC(=O)c1cccnc1)C(=O)N[C@@H](CC(C)C)C(=O)N[C@@H](CCCCNC(=O)c1cccnc1)C(=O)N1CCC[C@H]1C(=O)N[C@H](C)C(N)=O [compound 24746] (Ac-[d2Nal][dPhe(4-Cl)][d3Pal]S[Lys(iPr)][dK](Nicotinoyl)LK(Nicotinoyl)P[dA]-NH2)			132.8 ± 5.9
CC(=O)N[C@H](Cc1ccc2ccccc2c1)C(=O)N[C@H](Cc1ccc(Cl)cc1)C(=O)N[C@H](Cc1cccnc1)C(=O)N[C@@H](CO)C(=O)N[C@@H](Cc1ccc(O)cc1)C(=O)N[C@H](CCCCNC(=O)c1cccnc1)C(=O)N[C@@H](CC(C)C)C(=O)N[C@@H](CCCN)C(=O)N1CCC[C@H]1C(=O)N[C@H](C)C(N)=O [compound 24748] (Ac-[d2Nal][dPhe(4-Cl)][d3Pal]SY[dK](Nicotinoyl)L[Orn]P[dA]-NH2)			129.4
CC(=O)N[C@H](Cc1ccc2ccccc2c1)C(=O)N[C@H](Cc1ccc(Cl)cc1)C(=O)N[C@H](Cc1cccnc1)C(=O)N[C@@H](CO)C(=O)N[C@@H](CCCCNC(=O)c1ccccn1)C(=O)N[C@H](C[C@H]1CC[C@H](NC(=O)c2cnccn2)CC1)C(=O)N[C@@H](CC(C)C)C(=O)N[C@@H](CCCCNC(C)C)C(=O)N1CCC[C@H]1C(=O)N[C@H](C)C(N)=O [IV-5] (Ac-[d2Nal][dPhe(4-Cl)][d3Pal]SK(Picolinoyl)[X3]L[Lys(iPr)]P[dA]-NH2)	106.3 ± 4.3		
